Where two headings read alike, the source gives them in different places.
Key:
[1] = design: method as in earlier work; conditions: previously-reported parent compounds, cited from earlier work; for singlet oxygen quantum yield at 355 nm, ACN / singlet oxygen quantum yield at 355 nm, DCM / singlet oxygen quantum yield at 355 nm, PBS: excitation 355 nm
[2] = Singlet oxygen generation, time-resolved NIR phosphorescence at 1275 nm; type: physicochemical; conditions: for singlet oxygen quantum yield at 355 nm, ACN / singlet oxygen quantum yield at 355 nm, DCM / singlet oxygen quantum yield at 355 nm, PBS: excitation 355 nm; for singlet oxygen quantum yields in DCM: excitation at 355 and 532 nm
Source text: Singlet oxygen generation was studied by time-resolved near-infrared phosphorescence by means of a customized setup. Briefly, a pulsed Nd:YAG laser (FTSS355-Q, Crystal Laser, Berlin, Germany) working at a 1 or 10 kHz repetition rate at 355 nm (0.5 μJ per pulse) or 532 nm (1.2 μJ per pulse) was used to excite the sample. A 1064 nm rugate notch filter (Edmund Optics) and an uncoated SKG-5 filter (CVI Laser Corporation) were placed in the laser path to remove any NIR emission. The light emitted by the sample was filtered with a 1000 nm long-pass filter (Edmund Optics) and later by a narrow bandpass filter at 1275 nm (BK-1270-70-B, bk Interferenzoptik). A thermoelectric-cooled NIR-sensitive photomultiplier tube assembly (H9170-45, Hamamatsu Photonics, Hamamatsu, Japan) was used as a detector. […] The time dependence of the ^1O2 phosphorescence with the signal intensity S(t) is described by eq 2, in which τT and τΔ are the lifetimes of the photosensitizer triplet state and of ^1O2 respectively, and S0 is a preexponential parameter proportional to ΦΔ. [drawing 2] 2
The ΦΔ values of the different samples were obtained by comparing S0 values of optically matched samples and using an appropriate reference by means of eq 3. [drawing 3] 3

[3] = system: A2780cis cells; assay: Cellular accumulation by ICP-MS; type: cell-based; conditions: 2 h treatment at 10 μM
Protocol: Briefly, A2780cis cells were seeded onto a 12-well plate (3 × 10^5 cells/well). Treatments with tested agents for 2 h were applied at 10 μM. Cisplatin was included for comparative purposes. Cells were then trypsinized, and pellets were counted. […] Three independent experiments were performed (n = 2 replicates).

[4] = system: A2780cis MCTS; assay: 3D multicellular tumor spheroid growth inhibition; type: cell-based; conditions: 10 μM, 4 h incubation; for spheroid shrinkage compared to irradiated controls: 1 h 520 nm; for tumor growth of A2780cis spheres after PDT treatment: 1 h 520 nm on day 3, followed 7 days
Protocol: Briefly, a single suspension of A2780cis cells at a density of 5 × 10^3 cells/well in complete RPMI medium was dispatched onto 96-well Corning microplates with ultralow attachment surface coating. The plates were covered and transferred to an incubator at 310 K with a 5% CO2 atmosphere. After 3 days post-seeding, uniform MCTSs were formed, which was confirmed using an inverted Zeiss AXIO observer 7 microscope. Cell media of MCTSs was changed by replacing 50% with fresh cell media and allowed to grow for 3 days. On day 3, MTCS was incubated with tested agents (10 μM) for 4 h and then irradiated with 520 nm light for 1 h. Treatments were then carefully removed, and fresh media was added. The integrity, radius, size, and volume of the MCTSs were monitored using a DMi1 inverted phase contrast microscope (Leica Microsystems) over 7 days. The radius of the tumorspheres was measured using Fiji software, and the volume was calculated using the following equation: V = 4/3πr^3.

[5] = Superoxide anion radical generation using DHR123; type: physicochemical; conditions: 10 μM in PBS (0.2% DMSO); green light 505 nm
Protocol: All compounds (10 μM) were prepared in PBS (0.2% DMSO). To this solution, DHR123 was added so that its final concentration was 10 μM. Then, the samples were irradiated in 1.0 × 0.5 cm cuvette by green light (505 nm centered LED) for indicated time intervals. Immediately, the fluorescence spectra were collected by using a Photon Technology International (PTI) fluorimeter. The excitation wavelength was set to 500 nm, the excitation and emission slit widths were 2 nm, and the integration time was set to 1 s.

[6] = excitation 532 nm, room temperature

Compound: CCN(CC)c1ccc2c(c1)O/C(=C(/C#N)c1cc[n+](C)cc1)C=C2C [1a]
- singlet oxygen quantum yield at 355 nm, ACN ([1]; ACN): < 0.01
- singlet oxygen quantum yield at 532 nm, ACN ([1]; ACN, excitation 532 nm): < 0.01
- singlet oxygen quantum yield at 355 nm, DCM ([1]; DCM): < 0.01
- singlet oxygen quantum yield at 532 nm, DCM ([1]; DCM, excitation 532 nm): 0.03
- singlet oxygen quantum yield at 355 nm, PBS ([1]; PBS): 0
- singlet oxygen quantum yield at 532 nm, PBS ([1]; PBS, excitation 532 nm): < 0.01

Compound: CC1=C/C(=C(\C#N)c2cc[n+](C)cc2)Oc2ccccc21 [1b]
- singlet oxygen quantum yield at 355 nm, ACN ([2]; room temperature): 0.01
- singlet oxygen quantum yield at 532 nm, ACN [2, 6]: < 0.01
- singlet oxygen quantum yield at 355 nm, DCM ([2]; DCM, room temperature): 0.01
- singlet oxygen quantum yield at 355 nm, PBS ([2]; room temperature): 0
- singlet oxygen quantum yield at 532 nm, PBS [2, 6]: < 0.01

Compound: CC1=C/C(=C(\C#N)c2cc[n+](C)cc2)Oc2c1cc1c3c2CCCN3CCC1 [1c]
- singlet oxygen quantum yield at 355 nm, ACN ([2]; room temperature): 0
- singlet oxygen quantum yield at 532 nm, ACN [2, 6]: 0.01
- singlet oxygen quantum yield at 355 nm, DCM ([2]; DCM, room temperature): 0.03
- singlet oxygen quantum yield at 532 nm, DCM ([2]; DCM, excitation 532 nm, room temperature): 0.03
- singlet oxygen quantum yield at 355 nm, PBS ([2]; room temperature): 0
- singlet oxygen quantum yield at 532 nm, PBS [2, 6]: < 0.01

Compound: CCCCn1c2[n+](c3cc(C(=O)OC)ccc31)[Ir-3]13([c]4ccccc4-c4[nH]c5ccccc5[n+]41)([c]1ccccc1-c1[nH]c4ccccc4[n+]13)[n+]1c-2ccc2ccccc21 [2a]
- Intracellular Ir levels [3]: 276 ± 12 ng/10^6 cells
- singlet oxygen quantum yield at 355 nm, ACN ([1]; ACN): 0.42
- singlet oxygen quantum yield at 355 nm, DCM ([1]; DCM): 0.23
- singlet oxygen quantum yield at 355 nm, PBS ([1]; PBS): < 0.01

Compound: CCCCn1c2[n+](c3cc(C(=O)NCCCNC(=O)C[n+]4ccc(/C(C#N)=C5/C=C(C)c6ccc(N(CC)CC)cc6O5)cc4)ccc31)[Ir-3]13([c]4ccccc4-c4[nH]c5ccccc5[n+]41)([c]1ccccc1-c1[nH]c4ccccc4[n+]13)[n+]1c-2ccc2ccccc21 [3a]
- spheroid shrinkage compared to irradiated controls [4]: statistically significant shrank
- tumor growth of A2780cis spheres after PDT treatment [4]: effectively blocked tumoral growth

Compound: CCCCn1c2[n+](c3cc(C(=O)NCCCNC(=O)C[n+]4ccc(/C(C#N)=C5/C=C(C)c6ccccc6O5)cc4)ccc31)[Ir-3]13([c]4ccccc4-c4[nH]c5ccccc5[n+]41)([c]1ccccc1-c1[nH]c4ccccc4[n+]13)[n+]1c-2ccc2ccccc21 [3b]
- tumor growth of A2780cis spheres after PDT treatment [4]: did not show significant tumor inhibition effects
- singlet oxygen quantum yields in DCM ([2]; DCM): ca. 0.20
- superoxide anion radical generation (DHR123 fluorescence) [5]: highest maximum emission intensity of superoxide generation

Compound: CCCCn1c2[n+](c3cc(C(=O)NCCCNC(=O)C[n+]4ccc(/C(C#N)=C5/C=C(C)c6cc7c8c(c6O5)CCCN8CCC7)cc4)ccc31)[Ir-3]13([c]4ccccc4-c4[nH]c5ccccc5[n+]41)([c]1ccccc1-c1[nH]c4ccccc4[n+]13)[n+]1c-2ccc2ccccc21 [3c]
- Intracellular Ir levels [3]: 461 ± 74 ng/10^6 cells
- tumor growth of A2780cis spheres after PDT treatment [4]: did not show significant tumor inhibition effects
- singlet oxygen quantum yields in DCM ([2]; DCM): ca. 0.20
- superoxide anion radical generation (DHR123 fluorescence) [5]: fastest rates in superoxide generation

Compound: CCCCn1c2[n+](c3cc(C(=O)NCCCCCC(=O)NCCCNC(=O)C[n+]4ccc(/C(C#N)=C5/C=C(C)c6ccc(N(CC)CC)cc6O5)cc4)ccc31)[Ir-3]13([c]4ccccc4-c4[nH]c5ccccc5[n+]41)([c]1ccccc1-c1[nH]c4ccccc4[n+]13)[n+]1c-2ccc2ccccc21 [3d]
- tumor growth of A2780cis spheres after PDT treatment [4]: effectively blocked tumoral growth

Compound: CCCCn1c2[n+](c3cc(C(=O)NC[C@H]4CC[C@H](C(=O)NCCCNC(=O)C[n+]5ccc(/C(C#N)=C6/C=C(C)c7ccc(N(CC)CC)cc7O6)cc5)CC4)ccc31)[Ir-3]13([c]4ccccc4-c4[nH]c5ccccc5[n+]41)([c]1ccccc1-c1[nH]c4ccccc4[n+]13)[n+]1c-2ccc2ccccc21 [3e]
- spheroid shrinkage compared to irradiated controls [4]: statistically significant shrank
- tumor growth of A2780cis spheres after PDT treatment [4]: effectively blocked tumoral growth

— publication PMC10291553, “Exploring Structure–Activity Relationships in Photodynamic Therapy Anticancer Agents Based on Ir(III)-COUPY Conjugates” (Journal of Medicinal Chemistry, 2023)
